Laboratory results: patent US20260183274A1, “PDK1 REGULATORY COMPOUND AND COMPOSITION CONTAINING THE SAME” (PROVIBIO CO., LTD., priority 2024, published 2026)

Tested on: T cells isolated from mouse spleens
Assay: T cell proliferation inhibition (CFSE flow cytometry, anti-CD3/anti-CD28 stimulation)
Type: cell-based
Details: mouse spleen T cells, 3 days; for inhibition at 0.01 µM / inhibition at 0.1 µM / inhibition at 1 µM / inhibition at 10 µM / inhibition at 30 µM / inhibition at 50 µM: Mus musculus, T-cell, 72 h, read-out: Proliferation inhibition rate (%); for inhibition at 50 µM: compound 50 μM
Description: To verify the T cell proliferation inhibitory effect of the compounds according to the present invention, the following experiment was performed based on flow cytometry analysis using carboxyfluorescein diacetate succinimidyl ester (CFSE), a fluorescent dye that binds to intracellular molecules via covalent bonds.
Spleens were extracted from 7-week-old C57BL/6 mice, ground, and then separated into single cells using a strainer (40 μm pore size, SPL). Red blood cells were removed using ACK (Ammonium-Chloride-Potassium) lysis buffer to isolate white blood cells.
Finally, using a MACS Magnetic Stand and LS column, T cells were isolated from the spleen.
The T cells isolated from the spleen were resuspended in 1 mL of free medium (RPMI-1640+200 U/mL penicillin+200 μg/mL streptomycin), and 0.3 μL of CFSE (10 mM) was added. The mixture was incubated at 37° C. for 5 minutes.
Free medium (10 mL) was added to stop the reaction, and the cells were centrifuged to obtain the cell pellet.
RPMI 1640 medium containing 10% FBS, 100 U/mL penicillin, 100 μg/mL streptomycin, and resuspended the cells. The cells were then seeded into a 96-well plate at a density of 2×10^5 cells per well and activated with CD3 and CD28 antibodies (0.5 μg/mL each) to activate T cells.
The compound diluted in DMSO was added at concentrations of 10 nM, 100 nM, 1 μM, 10 μM, 30 μM, and 50 μM, with three wells per concentration, and cultured at 37° C. and 5% CO2 for three days. The cells were then analyzed using a FACS Canto instrument.
The proliferation inhibition rate (%) was calculated using the following formula: […]

C[C@@H](C(=O)O)N(C=O)CCCCCCCCCCCCNC(=O)c1cccnc1N [Compound 130, N-(12-(2-aminonicotinamido)dodecyl)-N-formylalanine]
inhibition at 0.01 µM (compound 10 nM): -4.33%
inhibition at 0.1 µM (compound 100 nM): -5.22%
inhibition at 1 µM (compound 1 μM): 13.6%
inhibition at 10 µM (compound 10 μM): 85.4%
inhibition at 30 µM (compound 30 μM): 100%
inhibition at 50 µM: 100%

CN1CCN(CCCCCCCCCCCCNC(=O)c2ccccc2C(=O)NC2CCCCC2)CC1 [Compound 191, N1-Cyclohexyl-N2-(12-(4-methylpiperazin-1-yl)dodecyl)phthalamide]
inhibition at 0.01 µM (compound 10 nM): 0%
inhibition at 0.1 µM (compound 100 nM): 0%
inhibition at 1 µM (compound 1 μM): 7.39%
inhibition at 10 µM (compound 10 μM): 93.3%
inhibition at 30 µM (compound 30 μM): 100%
inhibition at 50 µM: 100%

CN1CCN(CCCCCCCCCCCCNC(=O)c2ccccc2-c2ncc[nH]2)CC1 [Compound 192, 2-(1H-imidazol-2-yl)-N-(12-(4-methylpiperazin-1-yl)dodecyl)benzamide]
inhibition at 0.01 µM (compound 10 nM): -3.25%
inhibition at 0.1 µM (compound 100 nM): -0.84%
inhibition at 1 µM (compound 1 μM): 0.96%
inhibition at 10 µM (compound 10 μM): 99.8%
inhibition at 30 µM (compound 30 μM): 100%
inhibition at 50 µM: 100%

CN1CCN(CCCCCCCCCCCCNC(=O)c2ccccc2-n2cccc2)CC1 [Compound 193, N-(12-(4-methylpiperazin-1-yl)dodecyl)-2-(1H-pyrrol-1-yl)benzamide]
inhibition at 0.01 µM (compound 10 nM): 5.02%
inhibition at 0.1 µM (compound 100 nM): 4.87%
inhibition at 1 µM (compound 1 μM): 12%
inhibition at 10 µM (compound 10 μM): 100%
inhibition at 30 µM (compound 30 μM): 100%
inhibition at 50 µM: 100%

CN1CCN(CCCCCCCCCCCCNC(=O)c2ccccc2-c2ccccc2)CC1 [Compound 194, N-(12-(4-methylpiperazin-1-yl)dodecyl)-[1,1′-biphenyl]-2-carboxamide]
inhibition at 0.01 µM (compound 10 nM): -4.09%
inhibition at 0.1 µM (compound 100 nM): -2.4%
inhibition at 1 µM (compound 1 μM): -1.68%
inhibition at 10 µM (compound 10 μM): 100%
inhibition at 30 µM (compound 30 μM): 100%
inhibition at 50 µM: 100%

CN1CCN(CCCCCCCCCCCCNC(=O)c2ccnc(-c3ccccn3)c2)CC1 [Compound 195, N-(12-(4-methylpiperazin-1-yl)dodecyl)-[2,2′-bipyridine]-4-carboxamide]
inhibition at 0.01 µM (compound 10 nM): 1.77%
inhibition at 0.1 µM (compound 100 nM): 2.81%
inhibition at 1 µM (compound 1 μM): -7.83%
inhibition at 10 µM (compound 10 μM): 100%
inhibition at 30 µM (compound 30 μM): 100%
inhibition at 50 µM: 100%

CN1CCN(CCCCCCCCCCCCNC(=O)c2ccccc2Cc2ccccc2)CC1 [Compound 196, 2-Benzyl-N-(12-(4-methylpiperazin-1-yl)dodecyl)benzamide]
inhibition at 0.01 µM (compound 10 nM): 5.21%
inhibition at 0.1 µM (compound 100 nM): 4.05%
inhibition at 1 µM (compound 1 μM): 12.3%
inhibition at 10 µM (compound 10 μM): 100%
inhibition at 30 µM (compound 30 μM): 100%
inhibition at 50 µM: 100%

CN1CCN(CCCCCCCCCCCCNC(=O)c2cccc(N)c2I)CC1 [Compound 197, 3-Amino-2-iodo-N-(12-(4-methylpiperazin-1-yl)dodecyl)benzamide]
inhibition at 0.01 µM (compound 10 nM): 7.81%
inhibition at 0.1 µM (compound 100 nM): 10.3%
inhibition at 1 µM (compound 1 μM): 16.4%
inhibition at 10 µM (compound 10 μM): 98%
inhibition at 30 µM (compound 30 μM): 100%
inhibition at 50 µM: 100%

CN1CCN(CCCCCCCCCCCCNC(=O)c2ccnc(Cl)c2Cl)CC1 [Compound 198, 2,3-Dichloro-N-(12-(4-methylpiperazin-1-yl)dodecyl)isonicotinamide]
inhibition at 0.01 µM (compound 10 nM): 5.35%
inhibition at 0.1 µM (compound 100 nM): 9.41%
inhibition at 1 µM (compound 1 μM): 20.1%
inhibition at 10 µM (compound 10 μM): 100%
inhibition at 30 µM (compound 30 μM): 100%
inhibition at 50 µM: 100%

CN1CCN(CCCCCCCCCCCCNC(=O)c2ccncc2Cl)CC1 [Compound 199, 3-Chloro-N-(12-(4-methylpiperazin-1-yl)dodecyl)isonicotinamide]
inhibition at 0.01 µM (compound 10 nM): 0%
inhibition at 0.1 µM (compound 100 nM): 0%
inhibition at 1 µM (compound 1 μM): 0%
inhibition at 10 µM (compound 10 μM): 40%
inhibition at 30 µM (compound 30 μM): 100%
inhibition at 50 µM: 100%

COc1ncccc1C(=O)NCCCCCCCCCCCCN1CCN(C)CC1 [Compound 200, 2-Methoxy-N-(12-(4-methylpiperazin-1-yl)dodecyl)nicotinamide]
inhibition at 0.01 µM (compound 10 nM): 0%
inhibition at 0.1 µM (compound 100 nM): 0%
inhibition at 1 µM (compound 1 μM): 0%
inhibition at 10 µM (compound 10 μM): 80%
inhibition at 30 µM (compound 30 μM): 100%
inhibition at 50 µM: 100%

CN1CCN(CCCCCCCCCCCCNC(=O)c2c(Cl)cncc2Cl)CC1 [Compound 201, 3,5-Dichloro-N-(12-(4-methylpiperazin-1-yl)dodecyl)isonicotinamide]
inhibition at 0.01 µM (compound 10 nM): 7.24%
inhibition at 0.1 µM (compound 100 nM): 6.66%
inhibition at 1 µM (compound 1 μM): 8.54%
inhibition at 10 µM (compound 10 μM): 78.4%
inhibition at 30 µM (compound 30 μM): 100%
inhibition at 50 µM: 100%

Cc1ccc(C(=O)NCCCCCCCCCCCCN2CCN(C)CC2)nc1 [Compound 202, 5-Methyl-N-(12-(4-methylpiperazin-1-yl)dodecyl)picolinamide]
inhibition at 0.01 µM (compound 10 nM): 4.05%
inhibition at 0.1 µM (compound 100 nM): 13.2%
inhibition at 1 µM (compound 1 μM): 19%
inhibition at 10 µM (compound 10 μM): 100%
inhibition at 30 µM (compound 30 μM): 100%
inhibition at 50 µM: 100%

CN1CCN(CCCCCCCCCCCCNC(=O)c2ccc(F)cn2)CC1 [Compound 203, 5-Fluoro-N-(12-(4-methylpiperazin-1-yl)dodecyl)picolinamide]
inhibition at 0.01 µM (compound 10 nM): -4.49%
inhibition at 0.1 µM (compound 100 nM): 1.16%
inhibition at 1 µM (compound 1 μM): 6.8%
inhibition at 10 µM (compound 10 μM): 100%
inhibition at 30 µM (compound 30 μM): 100%
inhibition at 50 µM: 100%

COc1ccc(C(=O)NCCCCCCCCCCCCN2CCN(C)CC2)nc1 [Compound 204, 5-methoxy-N-(12-(4-methylpiperazin-1-yl)dodecyl)picolinamide]
inhibition at 0.01 µM (compound 10 nM): -2.6%
inhibition at 0.1 µM (compound 100 nM): -0.14%
inhibition at 1 µM (compound 1 μM): 12.3%
inhibition at 10 µM (compound 10 μM): 95%
inhibition at 30 µM (compound 30 μM): 100%
inhibition at 50 µM: 100%

Cc1nccn1-c1cccc(C(=O)NCCCCCCCCCCCCN2CCN(C)CC2)c1 [Compound 207, 3-(2-methyl-1H-imidazol-1-yl)-N-(12-(4-methylpiperazin-1-yl)dodecyl)benzamide]
inhibition at 0.01 µM (compound 10 nM): -5.35%
inhibition at 0.1 µM (compound 100 nM): -3.91%
inhibition at 1 µM (compound 1 μM): -3.04%
inhibition at 10 µM (compound 10 μM): 100%
inhibition at 30 µM (compound 30 μM): 100%
inhibition at 50 µM: 100%

CN1CCN(CCCCCCCCCCCCNC(=O)c2ccc(-c3ncn[nH]3)cc2)CC1 [Compound 208, N-(12-(4-methylpiperazin-1-yl)dodecyl)-4-(1H-1,2,4-triazol-5-yl)benzamide]
inhibition at 0.01 µM (compound 10 nM): 2.46%
inhibition at 0.1 µM (compound 100 nM): -0.58%
inhibition at 1 µM (compound 1 μM): 10.6%
inhibition at 10 µM (compound 10 μM): 100%
inhibition at 30 µM (compound 30 μM): 100%
inhibition at 50 µM: 100%

CN1CCN(CCCCCCCCCCCCNC(=O)c2ccncc2N)CC1 [Compound 209, 3-Amino-N-(12-(4-methylpiperazin-1-yl)dodecyl)isonicotinamide]
inhibition at 0.01 µM (compound 10 nM): -1.45%
inhibition at 0.1 µM (compound 100 nM): 1.59%
inhibition at 1 µM (compound 1 μM): 18.8%
inhibition at 10 µM (compound 10 μM): 84.5%
inhibition at 30 µM (compound 30 μM): 100%
inhibition at 50 µM: 100%

CN1CCN(CCCCCCCCCCCCNC(=O)c2cccnc2O)CC1 [Compound 210, 2-Hydroxy-N-(12-(4-methylpiperazin-1-yl)dodecyl)nicotinamide]
inhibition at 0.01 µM (compound 10 nM): -4.34%
inhibition at 0.1 µM (compound 100 nM): -3.18%
inhibition at 1 µM (compound 1 μM): 2.75%
inhibition at 10 µM (compound 10 μM): 42.8%
inhibition at 30 µM (compound 30 μM): 100%
inhibition at 50 µM: 100%

CN1CCN(CCCCCCCCCCCCNC(=O)c2cnccc2N)CC1 [Compound 211, 4-Amino-N-(12-(4-methylpiperazin-1-yl)dodecyl)nicotinamide]
inhibition at 50 µM: 100%
Proliferation inhibition rate (%) (compound 10 nM, listed as KP-63, 0.01 µM): −2.17%
Proliferation inhibition rate (%) (compound 100 nM, listed as KP-63, 0.1 µM): −0.87%
Proliferation inhibition rate (%) (compound 1 μM, listed as KP-63, 1 µM): 9.70%
Proliferation inhibition rate (%) (compound 10 μM, listed as KP-63, 10 µM): 90.01%

CN1CCN(CCCCCCCCCCCCNC(=O)c2cnccc2N)CC1 [Compound 212, 4-Amino-N-(12-(4-methylpiperazin-1-yl)dodecyl)nicotinamide]
Proliferation inhibition rate (%) (compound 10 nM, listed as KP-64, 0.01 µM): −2.89%
Proliferation inhibition rate (%) (compound 100 nM, listed as KP-64, 0.1 µM): −3.91%
Proliferation inhibition rate (%) (compound 1 μM, listed as KP-64, 1 µM): −4.34%
Proliferation inhibition rate (%) (compound 10 μM, listed as KP-64, 10 µM): 20.55%
Proliferation inhibition rate (%) (compound 30 μM, listed as KP-64, 30 µM): 71.78%

CN1CCN(CCCCCCCCCCCCNC(=O)c2ccc(C(F)(F)F)cc2N)CC1 [Compound 213, 2-Amino-N-(12-(4-methylpiperazin-1-yl)dodecyl)-4-(trifluoromethyl)benzamide]
inhibition at 0.01 µM (compound 10 nM): -0.14%
inhibition at 0.1 µM (compound 100 nM): 6.37%
inhibition at 1 µM (compound 1 μM): 8.54%
inhibition at 10 µM (compound 10 μM): 100%
inhibition at 30 µM (compound 30 μM): 100%
inhibition at 50 µM: 100%
